Measurements: patent US20160221974A1, “SODIUM CHANNEL MODULATORS FOR THE TREATMENT OF PAIN AND DIABETES” (CHROMOCELL CORPORATION, priority 2013, published 2016)
Values joined by “and” are separate entries in the source; they are usually repeats but may differ in a detail not shown here. Equal entries are not always repeated.

Assays:
[1] = molecular target: T1, hNaV1.7 (Homo sapiens, UniProt Q15858); assay: FDSS Membrane Potential In-Vitro Assay; assay type: cell-based; conditions: stimulation with veratridine and scorpion venom, read-out: NaV1.7 IC50
T1 construct: expressed in transfected cells

[2] = test system: Partial Sciatic Nerve Ligation (PSNL) model; assay: Partial Sciatic Nerve Ligation (PSNL) model, behavioral tests; assay type: in vivo, male Sprague-Dawley rats; conditions: oral route, relative to vehicle control, measured 30 minutes post dose
Description: 250-350 g male Sprague-Dawley rats from appropriate animal resources were anesthetized with 2.5% isoflurane. A hind leg was shaved, and the skin was sterilized with 0.5% iodine and 75% alcohol. All surgical instruments were sterilized before surgery and between animals. An incision (1 cm) was made at the middle of the thigh in parallel with the muscle and sciatic nerve distribution. The muscle was exposed and dissected at the joint of two muscles (biceps femoris) indicated by the light colored (white) fascia line. The sciatic nerve was just beneath the muscle and was hooked out using an 18-20 G feeding needle (90 degree curved); the sciatic nerve was flat on the feeding needle and approximately one-half the diameter of the nerve is tightly ligated with 7-0 silk suture. A response of the injured leg twitch indicates the success of ligation. After checking hemostasis, bupivicaine 0.1-0.2 ml (0.125%) was given at the incision area, the muscle and the adjacent fascia are closed with 5-0 absorbable sutures. The skin was sutured with absorbable suture and tissue glue. The control group using sham surgery animals (about 8-10 animals) underwent the same surgical procedure but with no nerve ligation. Animals were returned to their home cage after recovery from anesthesia.
The analgesic effect of the test compound was expressed as a percent recovery (% Recovery) relative to the sham control group baseline and calculated according to the formula:
% Recovery=100%−{[(sham mean−test compound mean)/(sham mean−vehicle mean)]×100%}
wherein “sham mean” refers to average score in the sham-operated group; “test compound mean” refers to average score in the PSNL-group (animals with partial sciatic nerve ligation) or diabetic group (animals treated with STZ) treated with a test compound; “vehicle mean” refers to average score in the PSNL-group or diabetic group treated with vehicle only. The above formula was used to obtain data for the following in vivo behavioral tests.
The following behavioral tests were conducted (i.e., plantar test, paw pressure test, and von Frey test) started on day 3 and thereafter once weekly following surgery or use of a diabetic inducer. […]
(§1) Rats were placed on the glass surface of a thermal testing apparatus (Model 336, IITC/Life Science Instruments, Woodland Hills, Calif.) and were allowed to acclimate for 10 min before testing on the glass surface at room temperature. […] The paw withdrawal latency was recorded by a digital timer. The thermal threshold was determined as the mean withdrawal latency from two to three consecutive trials of both hindpaws. […]
Animals were placed under clear plastic boxes above a wire mesh floor, which allowed full access to the paws. […] Mechanical paw withdrawal thresholds (PWTs) were measured with the up-down testing paradigm. […]

[3] = test system: streptozotocin (STZ)-induced diabetic model; assay: Streptozotocin (STZ)-Induced Model of Diabetic Neuropathy, behavioral tests; assay type: in vivo, male Sprague-Dawley rats; conditions: 30 mg/kg, measured 30 minutes post dose
Description: 250-350 g male Sprague-Dawley rats from appropriate animal resources were used. Type I diabetes was induced by a single injection, (intraperitoneally, intravenously or intramuscularly) of 50-100 mg/kg of streptozotocin (STZ, Sigma Chemicals, St. Louis, Mo. or VWR) freshly dissolved in sodium citrate (0.01 M, pH 4.5). Sham animals were given either saline or same vehicle injection. Following a wait time of about two days, inducement of diabetes was confirmed in STZ-injected rats by measuring the plasma glucose concentrations in blood samples from the tail vein after a fast of 6 hours. […] Other parameters (water intake, food intake, and bodyweight) were monitored before the treatment with a test compound and after the cessation of the treatment.
The analgesic effect of the test compound was expressed as a percent recovery (% Recovery) relative to the sham control group baseline and calculated according to the formula: […]
as §1

T1 sequence (Q15858 whole entry): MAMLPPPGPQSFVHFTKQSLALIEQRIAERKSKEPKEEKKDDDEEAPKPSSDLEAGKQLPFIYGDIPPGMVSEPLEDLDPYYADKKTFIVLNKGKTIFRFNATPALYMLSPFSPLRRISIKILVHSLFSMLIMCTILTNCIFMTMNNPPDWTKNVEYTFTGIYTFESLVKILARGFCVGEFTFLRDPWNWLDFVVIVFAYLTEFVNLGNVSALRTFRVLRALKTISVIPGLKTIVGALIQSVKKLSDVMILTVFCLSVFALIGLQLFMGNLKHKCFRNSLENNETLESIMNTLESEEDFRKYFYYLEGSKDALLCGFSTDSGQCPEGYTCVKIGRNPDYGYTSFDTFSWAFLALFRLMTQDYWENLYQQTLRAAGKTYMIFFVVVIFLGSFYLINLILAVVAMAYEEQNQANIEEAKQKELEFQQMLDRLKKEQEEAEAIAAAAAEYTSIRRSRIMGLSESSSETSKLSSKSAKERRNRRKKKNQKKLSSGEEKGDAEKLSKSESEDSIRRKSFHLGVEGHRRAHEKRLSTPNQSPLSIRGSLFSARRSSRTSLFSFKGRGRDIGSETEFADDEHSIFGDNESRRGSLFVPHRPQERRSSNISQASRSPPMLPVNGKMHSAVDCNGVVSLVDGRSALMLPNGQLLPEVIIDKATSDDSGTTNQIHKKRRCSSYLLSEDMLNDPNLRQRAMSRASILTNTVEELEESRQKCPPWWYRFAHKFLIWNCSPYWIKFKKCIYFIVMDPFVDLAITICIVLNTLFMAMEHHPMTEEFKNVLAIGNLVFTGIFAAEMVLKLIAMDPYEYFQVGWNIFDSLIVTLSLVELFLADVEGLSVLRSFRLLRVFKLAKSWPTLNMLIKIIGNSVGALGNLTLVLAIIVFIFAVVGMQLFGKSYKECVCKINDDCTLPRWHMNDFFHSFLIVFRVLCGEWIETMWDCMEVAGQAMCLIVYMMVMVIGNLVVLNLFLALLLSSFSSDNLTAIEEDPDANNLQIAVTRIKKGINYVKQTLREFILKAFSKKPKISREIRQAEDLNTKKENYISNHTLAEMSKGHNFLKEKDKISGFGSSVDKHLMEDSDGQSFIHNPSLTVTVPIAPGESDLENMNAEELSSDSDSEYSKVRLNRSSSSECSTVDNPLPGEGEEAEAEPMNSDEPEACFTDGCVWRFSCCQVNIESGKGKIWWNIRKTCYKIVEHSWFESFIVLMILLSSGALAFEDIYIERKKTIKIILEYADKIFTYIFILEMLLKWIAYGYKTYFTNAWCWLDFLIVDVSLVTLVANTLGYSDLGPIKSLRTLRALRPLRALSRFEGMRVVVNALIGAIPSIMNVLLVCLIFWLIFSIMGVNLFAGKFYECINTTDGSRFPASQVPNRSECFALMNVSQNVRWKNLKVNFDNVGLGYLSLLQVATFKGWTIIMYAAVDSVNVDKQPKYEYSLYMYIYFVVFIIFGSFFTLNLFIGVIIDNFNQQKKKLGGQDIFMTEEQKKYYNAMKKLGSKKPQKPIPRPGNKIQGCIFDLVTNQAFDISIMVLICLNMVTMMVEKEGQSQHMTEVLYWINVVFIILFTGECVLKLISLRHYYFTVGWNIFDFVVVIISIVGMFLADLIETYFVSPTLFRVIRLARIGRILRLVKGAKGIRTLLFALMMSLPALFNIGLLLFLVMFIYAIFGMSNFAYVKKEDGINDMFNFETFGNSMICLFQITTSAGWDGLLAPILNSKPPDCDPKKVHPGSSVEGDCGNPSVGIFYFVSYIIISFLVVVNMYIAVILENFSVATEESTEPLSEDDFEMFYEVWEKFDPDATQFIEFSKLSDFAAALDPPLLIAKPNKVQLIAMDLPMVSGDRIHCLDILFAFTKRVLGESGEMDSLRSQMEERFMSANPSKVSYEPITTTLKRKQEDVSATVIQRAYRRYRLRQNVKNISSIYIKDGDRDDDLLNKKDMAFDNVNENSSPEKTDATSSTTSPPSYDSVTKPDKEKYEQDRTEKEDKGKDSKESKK
T1 sequence (Q07699 19-218 partner): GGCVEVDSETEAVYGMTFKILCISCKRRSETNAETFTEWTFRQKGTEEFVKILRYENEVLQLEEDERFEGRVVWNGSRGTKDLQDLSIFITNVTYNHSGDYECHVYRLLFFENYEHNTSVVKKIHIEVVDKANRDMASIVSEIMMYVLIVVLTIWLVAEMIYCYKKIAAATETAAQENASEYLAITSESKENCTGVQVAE
T1 sequence (O60939 30-215 partner): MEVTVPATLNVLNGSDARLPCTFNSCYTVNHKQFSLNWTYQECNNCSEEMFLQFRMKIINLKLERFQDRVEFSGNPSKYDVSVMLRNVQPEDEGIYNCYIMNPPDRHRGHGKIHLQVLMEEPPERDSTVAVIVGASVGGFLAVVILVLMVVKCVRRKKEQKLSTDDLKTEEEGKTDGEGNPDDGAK

With `NC(=O)CNCCCc1cc(Cl)ccc1Oc1cc(F)c(S(=O)(=O)Nc2cscn2)cc1Cl` [Compound 49, 2-((3-(5-chloro-2-(2-chloro-5-fluoro-4-(N-(thiazol-4-yl)sulfamoyl)phenoxy)phenyl)propyl)amino)acetamide] the IC50 [1] was 100 to 500 nM and 500 to 1000 nM, the “effect in the tactile allodynia test” value [2] was “no significant effect” and the “effect in the tactile allodynia test” value [3] was “no significant effect”.
